# Tested on: recombinant NL4-3 virus (Renilla luciferase in nef, Gag P373S)
# Assay: HIV cell culture assay (luciferase activity in MT-2 cells infected with NLRluc recombinant virus)
# Format: cell-based
# Conditions: NL43, MT-2 cells infected 4-5 days with NLRluc recombinant virus, class symbol
# Procedure, shortened: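 Activity was read as luciferase output (Dual Luciferase reagents premixed with lysis solution) after 4–5 days of infection in serially diluted inhibitor. Host cells were MT-2 in 10% FBS RPMI. The reporter virus came from transfected 293T cells and was titered on MT-2.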
row,Structure (SMILES),EC50
1,"C=C(C)[C@@H]1CC[C@]2(CNCCN3CCC(F)(F)CC3)CC[C@]3(C)[C@H](CC[C@@H]4[C@@]5(C)CC=C(c6ccc(C(=O)O)cc6)C(C)(C)[C@@H]5CC[C@]43C)[C@@H]12 [Example 48, 4-((1R,3aS,5aR,5bR,7aR,11aS,11bR,13aR,13bR)-3a-((2-(4,4-difluoropiperidin-1-yl)ethylamino)methyl)-5a,5b,8,8,11a-pentamethyl-1-(prop-1-en-2-yl)-2,3,3a,4,5,5a,5b,6,7,7a,8,11,11a,11b,12,13,13a,13b-octadecahydro-1H-cyclopenta[a]chrysen-9-yl)benzoic acid]",< 0.1 µM
2,"C=C(C)[C@@H]1CC[C@]2(CN[C@@H](CC(=O)OC)C(=O)OC)CC[C@]3(C)[C@H](CC[C@@H]4[C@@]5(C)CC=C(c6ccc(C(=O)O)cc6)C(C)(C)[C@@H]5CC[C@]43C)[C@@H]12 [Example 49, 4-((1R,3aS,5aR,5bR,7aR,11aS,11bR,13aR,13bR)-3a-(((S)-1,4-dimethoxy-1,4-dioxobutan-2-ylamino)methyl)-5a,5b,8,8,11a-pentamethyl-1-(prop-1-en-2-yl)-2,3,3a,4,5,5a,5b,6,7,7a,8,11,11a,11b,12,13,13a,13b-octadecahydro-1H-cyclopenta[a]chrysen-9-yl)benzoic acid]",< 0.1 µM
3,"C=C(C)[C@@H]1CC[C@]2(CNC3(C(=O)O)CC3)CC[C@]3(C)[C@H](CC[C@@H]4[C@@]5(C)CC=C(c6ccc(C(=O)O)cc6)C(C)(C)[C@@H]5CC[C@]43C)[C@@H]12 [Example 50, 4-((1R,3aS,5aR,5bR,7aR,11aS,11bR,13aR,13bR)-3a-((1-carboxycyclopropylamino)methyl)-5a,5b,8,8,11a-pentamethyl-1-(prop-1-en-2-yl)-2,3,3a,4,5,5a,5b,6,7,7a,8,11,11a,11b,12,13,13a,13b-octadecahydro-1H-cyclopenta[a]chrysen-9-yl)benzoic acid]",< 0.1 µM
4,"C=C(C)[C@@H]1CC[C@]2(CNC3(C(=O)OC)CC3)CC[C@]3(C)[C@H](CC[C@@H]4[C@@]5(C)CC=C(c6ccc(C(=O)O)cc6)C(C)(C)[C@@H]5CC[C@]43C)[C@@H]12 [Example 51, 4-((1R,3aS,5aR,5bR,7aR,11aS,11bR,13aR,13bR)-3a-((1-(methoxycarbonyl)cyclopropylamino)methyl)-5a,5b,8,8,11a-pentamethyl-1-(prop-1-en-2-yl)-2,3,3a,4,5,5a,5b,6,7,7a,8,11,11a,11b,12,13,13a,13b-octadecahydro-1H-cyclopenta[a]chrysen-9-yl)benzoic acid]",< 0.1 µM
5,"C=C(C)[C@@H]1CC[C@]2(CNC3(CN(CC)CC)CC3)CC[C@]3(C)[C@H](CC[C@@H]4[C@@]5(C)CC=C(c6ccc(C(=O)O)cc6)C(C)(C)[C@@H]5CC[C@]43C)[C@@H]12 [Example 52, 4-((1R,3aS,5aR,5bR,7aR,11aS,11bR,13aR,13bR)-3a-((1-((diethylamino)methyl)cyclopropylamino)methyl)-5a,5b,8,8,11a-pentamethyl-1-(prop-1-en-2-yl)-2,3,3a,4,5,5a,5b,6,7,7a,8,11,11a,11b,12,13,13a,13b-octadecahydro-1H-cyclopenta[a]chrysen-9-yl)benzoic acid]",< 0.1 µM
6,"C=C(C)[C@@H]1CC[C@]2(CNCc3ccoc3)CC[C@]3(C)[C@H](CC[C@@H]4[C@@]5(C)CC=C(c6ccc(C(=O)O)cc6)C(C)(C)[C@@H]5CC[C@]43C)[C@@H]12 [Example 53, 4-((1R,3aS,5aR,5bR,7aR,11aS,11bR,13aR,13bR)-3a-((furan-3-ylmethylamino)methyl)-5a,5b,8,8,11a-pentamethyl-1-(prop-1-en-2-yl)-2,3,3a,4,5,5a,5b,6,7,7a,8,11,11a,11b,12,13,13a,13b-octadecahydro-1H-cyclopenta[a]chrysen-9-yl)benzoic acid]",< 0.1 µM
7,"C=C(C)[C@@H]1CC[C@]2(CNCCCC(=O)N3CCS(=O)(=O)CC3)CC[C@]3(C)[C@H](CC[C@@H]4[C@@]5(C)CC=C(c6ccc(C(=O)O)cc6)C(C)(C)[C@@H]5CC[C@]43C)[C@@H]12 [Example 54, 4-((1R,3aS,5aR,5bR,7aR,11aS,11bR,13aR,13bR)-3a-(((4-(1,1-dioxido-4-thiomorpholinyl)-4-oxobutyl)amino)methyl)-1-isopropenyl-5a,5b,8,8,11a-pentamethyl-2,3,3a,4,5,5a,5b,6,7,7a,8,11,11a,11b,12,13,13a,13b-octadecahydro-1H-cyclopenta[a]chrysen-9-yl)benzoic acid]",< 0.1 µM
8,"C=C(C)[C@@H]1CC[C@]2(CNCCCn3ccnc3)CC[C@]3(C)[C@H](CC[C@@H]4[C@@]5(C)CC=C(c6ccc(C(=O)O)cc6)C(C)(C)[C@@H]5CC[C@]43C)[C@@H]12 [Example 55, 4-((1R,3aS,5aR,5bR,7aR,11aS,11bR,13aR,13bR)-3a-((3-(1H-imidazol-1-yl)propylamino)methyl)-5a,5b,8,8,11a-pentamethyl-1-(prop-1-en-2-yl)-2,3,3a,4,5,5a,5b,6,7,7a,8,11,11a,11b,12,13,13a,13b-octadecahydro-1H-cyclopenta[a]chrysen-9-yl)benzoic acid]",< 0.1 µM
9,"C=C(C)[C@@H]1CC[C@]2(CNCCCN3CCN(C)CC3)CC[C@]3(C)[C@H](CC[C@@H]4[C@@]5(C)CC=C(c6ccc(C(=O)O)cc6)C(C)(C)[C@@H]5CC[C@]43C)[C@@H]12 [Example 56, 4-((1R,3aS,5aR,5bR,7aR,11aS,11bR,13aR,13bR)-5a,5b,8,8,11a-pentamethyl-3a-((3-(4-methylpiperazin-1-yl)propylamino)methyl)-1-(prop-1-en-2-yl)-2,3,3a,4,5,5a,5b,6,7,7a,8,11,11a,11b,12,13,13a,13b-octadecahydro-1H-cyclopenta[a]chrysen-9-yl)benzoic acid]",< 0.1 µM
10,"C=C(C)[C@@H]1CC[C@]2(CNCCN(C(C)C)C(C)C)CC[C@]3(C)[C@H](CC[C@@H]4[C@@]5(C)CC=C(c6ccc(C(=O)O)cc6)C(C)(C)[C@@H]5CC[C@]43C)[C@@H]12 [Example 57, 4-((1R,3aS,5aR,5bR,7aR,11aS,11bR,13aR,13bR)-3a-((2-(diisopropylamino)ethylamino)methyl)-5a,5b,8,8,11a-pentamethyl-1-(prop-1-en-2-yl)-2,3,3a,4,5,5a,5b,6,7,7a,8,11,11a,11b,12,13,13a,13b-octadecahydro-1H-cyclopenta[a]chrysen-9-yl)benzoic acid]",< 0.1 µM
11,"C=C(C)[C@@H]1CC[C@]2(CNCCCN3CCCC3=O)CC[C@]3(C)[C@H](CC[C@@H]4[C@@]5(C)CC=C(c6ccc(C(=O)O)cc6)C(C)(C)[C@@H]5CC[C@]43C)[C@@H]12 [Example 58, 4-((1R,3aS,5aR,5bR,7aR,11aS,11bR,13aR,13bR)-5a,5b,8,8,11a-pentamethyl-3a-((3-(2-oxopyrrolidin-1-yl)propylamino)methyl)-1-(prop-1-en-2-yl)-2,3,3a,4,5,5a,5b,6,7,7a,8,11,11a,11b,12,13,13a,13b-octadecahydro-1H-cyclopenta[a]chrysen-9-yl)benzoic acid]",< 0.1 µM
12,"C=C(C)[C@@H]1CC[C@]2(CNCCn3ccnc3C)CC[C@]3(C)[C@H](CC[C@@H]4[C@@]5(C)CC=C(c6ccc(C(=O)O)cc6)C(C)(C)[C@@H]5CC[C@]43C)[C@@H]12 [Example 59, 4-((1R,3aS,5aR,5bR,7aR,11aS,11bR,13aR,13bR)-5a,5b,8,8,11a-pentamethyl-3a-((2-(2-methyl-1H-imidazol-1-yl)ethylamino)methyl)-1-(prop-1-en-2-yl)-2,3,3a,4,5,5a,5b,6,7,7a,8,11,11a,11b,12,13,13a,13b-octadecahydro-1H-cyclopenta[a]chrysen-9-yl)benzoic acid]",< 0.1 µM
13,"C=C(C)[C@@H]1CC[C@]2(CNCCCN(CCO)CCO)CC[C@]3(C)[C@H](CC[C@@H]4[C@@]5(C)CC=C(c6ccc(C(=O)O)cc6)C(C)(C)[C@@H]5CC[C@]43C)[C@@H]12 [Example 60, 4-((1R,3aS,5aR,5bR,7aR,11aS,11bR,13aR,13bR)-3a-((3-(bis(2-hydroxyethyl)amino)propylamino)methyl)-5a,5b,8,8,11a-pentamethyl-1-(prop-1-en-2-yl)-2,3,3a,4,5,5a,5b,6,7,7a,8,11,11a,11b,12,13,13a,13b-octadecahydro-1H-cyclopenta[a]chrysen-9-yl)benzoic acid]",< 0.1 µM
14,"C=C(C)[C@@H]1CC[C@]2(CNCCCNCCO)CC[C@]3(C)[C@H](CC[C@@H]4[C@@]5(C)CC=C(c6ccc(C(=O)O)cc6)C(C)(C)[C@@H]5CC[C@]43C)[C@@H]12 [Example 61, 4-((1R,3aS,5aR,5bR,7aR,11aS,11bR,13aR,13bR)-3a-((3-(2-hydroxyethylamino)propylamino)methyl)-5a,5b,8,8,11a-pentamethyl-1-(prop-1-en-2-yl)-2,3,3a,4,5,5a,5b,6,7,7a,8,11,11a,11b,12,13,13a,13b-octadecahydro-1H-cyclopenta[a]chrysen-9-yl)benzoic acid]",< 0.1 µM
15,"C=C(C)[C@@H]1CC[C@]2(CNCCNCCO)CC[C@]3(C)[C@H](CC[C@@H]4[C@@]5(C)CC=C(c6ccc(C(=O)O)cc6)C(C)(C)[C@@H]5CC[C@]43C)[C@@H]12 [Example 62, 4-((1R,3aS,5aR,5bR,7aR,11aS,11bR,13aR,13bR)-3a-((2-(2-hydroxyethylamino)ethylamino)methyl)-5a,5b,8,8,11a-pentamethyl-1-(prop-1-en-2-yl)-2,3,3a,4,5,5a,5b,6,7,7a,8,11,11a,11b,12,13,13a,13b-octadecahydro-1H-cyclopenta[a]chrysen-9-yl)benzoic acid]",< 0.1 µM
16,"C=C(C)[C@@H]1CC[C@]2(CNCCN3CCOCC3)CC[C@]3(C)[C@H](CC[C@@H]4[C@@]5(C)CC=C(c6ccc(C(=O)O)cc6)C(C)(C)[C@@H]5CC[C@]43C)[C@@H]12 [Example 63, 4-((1R,3aS,5aR,5bR,7aR,11aS,11bR,13aR,13bR)-5a,5b,8,8,11a-pentamethyl-3a-((2-morpholinoethylamino)methyl)-1-(prop-1-en-2-yl)-2,3,3a,4,5,5a,5b,6,7,7a,8,11,11a,11b,12,13,13a,13b-octadecahydro-1H-cyclopenta[a]chrysen-9-yl)benzoic acid]",< 0.1 µM
